Biological target: T1, Gag-Pol polyprotein [489-587] (Human immunodeficiency virus 1, UniProt P04585)
T1 construct: 489-587
Experiment: ChEBML_157552
Description: Compound was assayed for inhibition against HIV protease activity

Question: `COc1ccc(S(=O)(=O)N(CC2CCCC2)C[C@@H](O)CN(CCc2ccccc2)C(=O)OCc2cccnc2)cc1` [{(S)-3-[Cyclopentylmethyl-(4-methoxy-benzenesulfonyl)-amino]-2-hydroxy-propyl}-phenethyl-carbamic acid pyridin-3-ylmethyl ester] was tested. Which Ki did it give?
Answer: 17 nM
